Experimental data published in ChEMBL document CHEMBL4619799, “Mechanistic Insight into Antiretroviral Potency of 2'-Deoxy-2'-β-fluoro-4'-azidocytidine (FNC) with a Long-Lasting Effect on HIV-1 Prevention” (J Med Chem, 2020).
Active and inactive are the calls of the source. The calls are words filed in the database; no cut-off is given here. Peptide text beside a SMILES is read from it. * marks the point of attachment. Cbz = O=C(OCc1ccccc1)*

Legend:
[1] = tested on: Human immunodeficiency virus 1; test: Antiviral activity against VSVG pseudotyped HIV1 infected in HEK293 cells preincubated for 3 hrs followed by compound washout and subsequent compound redosing and measured after 72 hrs by luciferase reporter gene based assay; format: functional, organism-based; conditions: Human immunodeficiency virus 1, HEK293
[2] = Cytotoxicity against HEK293 cells assessed as cell viability by MTT assay; format: cell-based; conditions: human
[3] = molecular target: Virion infectivity factor (Human immunodeficiency virus type 1 group M subtype B (isolate NY5)(HIV-1)) (UniProt P12504); test: Inhibition of HIV1 HA-tagged Vif expressed in HEK293T cells co-expressing Myc-tagged pcDNA-APOBEC3G assessed as reduction in Vif-mediated A3G degradation at 10 uM measured after 16 hrs by Western blot analysis; format: cell-based; conditions: Human immunodeficiency virus 1, HEK-293T
Virion infectivity factor (Human immunodeficiency virus type 1 group M subtype B (isolate NY5)(HIV-1)), sequence (P12504 whole entry): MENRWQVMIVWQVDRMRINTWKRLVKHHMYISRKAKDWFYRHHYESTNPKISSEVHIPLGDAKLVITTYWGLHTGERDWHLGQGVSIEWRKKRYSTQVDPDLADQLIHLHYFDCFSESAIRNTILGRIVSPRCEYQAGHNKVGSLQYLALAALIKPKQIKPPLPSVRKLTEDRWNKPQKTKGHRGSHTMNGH

[4] = molecular target: Virion infectivity factor (Human immunodeficiency virus type 1 group M subtype B (isolate NY5)(HIV-1)) (UniProt P12504); test: Inhibition of HIV1 HA-tagged Vif expressed in HEK293T cells co-expressing Myc-tagged pcDNA-APOBEC3G and pcDNA-ubiquitin-His assessed as reduction in Vif-mediated A3G polyubiquitination at 10 uM measured after 16 hrs by Western blot analysis; format: cell-based; conditions: Human immunodeficiency virus 1, HEK-293T
[5] = AUC (0 to 24 hrs) in monkey plasma at 20 mg/kg, po administered as single dose by LC-MS/MS analysis; format: ADME, organism-based, Macaca mulatta; design: dose 20 mg/kg, time < 24 hr, route oral; conditions: rhesus monkey
[6] = Tmax in monkey plasma at 20 mg/kg, po administered as single dose by LC-MS/MS analysis; format: ADME, organism-based, Macaca mulatta; conditions: rhesus monkey
[7] = Cmax in monkey plasma at 20 mg/kg, po administered as single dose by LC-MS/MS analysis; format: ADME, organism-based, Macaca mulatta; design: dose 20 mg/kg, route oral; conditions: rhesus monkey
[8] = AUC (0 to 24 hrs) in monkey PBMC assessed as 3TC-TP level at 20 mg/kg, po administered as single dose by LC-MS/MS analysis; format: ADME, organism-based, Macaca mulatta; design: time < 24 hr, dose 20 mg/kg, route oral; conditions: rhesus monkey, in vivo
[9] = Tmax in monkey PBMC assessed as 3TC-TP level at 20 mg/kg, po administered as single dose by LC-MS/MS analysis; format: ADME, organism-based, Macaca mulatta; conditions: rhesus monkey, in vivo
[10] = Cmax in monkey PBMC assessed as 3TC-TP level at 20 mg/kg, po administered as single dose by LC-MS/MS analysis; format: ADME, organism-based, Macaca mulatta; design: dose 20 mg/kg, route oral; conditions: rhesus monkey, in vivo
[11] = Cmax in monkey plasma at 20 mg/kg, po administered as single dose measured after 72 hrs by LC-MS/MS analysis; format: ADME, organism-based, Macaca mulatta; design: dose 20 mg/kg, route oral; conditions: rhesus monkey
[12] = tested on: Human immunodeficiency virus 1; test: (§1) Antiviral activity against JRFL pseudotyped HIV1 infected in human Hut/CCR5 cells assessed as time needed to reach 50% reduction of virus infection at 10000 nM incubated with cells for 4 hrs prior to compound washout followed by viral infection and measured after 72 hrs by luciferase reporter gene assay; format: functional
[13] = Cytotoxicity against human Hut/CCR5 cells assessed as reduction in cell viability at 1000 to 10000 nM measured after 120 hrs by MTT assay; format: cell-based; conditions: 10 µM
[14] = Binding affinity to HIV1 Vif and CBFbeta-ELOB-ELOC complex (unknown origin) by CM5 chip based assay
[15] = molecular target: Virion infectivity factor (Human immunodeficiency virus type 1 group M subtype B (isolate NY5)(HIV-1)) (UniProt P12504); test: Inhibition of HIV1 HA-tagged Vif expressed in HEK293T cells co-expressing Myc-tagged pcDNA-APOBEC3G assessed as reduction in Vif-mediated A3G degradation at 10000 nM measured after 48 hrs by Western blot analysis; format: cell-based; conditions: Human immunodeficiency virus 1, HEK-293T
[16] = molecular target: Virion infectivity factor (Human immunodeficiency virus type 1 group M subtype B (isolate NY5)(HIV-1)) (UniProt P12504); test: Inhibition of HIV1 HA-tagged Vif expressed in HEK293T cells co-expressing eGFP-tagged pcDNA-APOBEC3G assessed as reduction in Vif-mediated A3G degradation at 10000 nM measured after 48 hrs by flow cytometry; format: cell-based; conditions: Human immunodeficiency virus 1, HEK-293T
[17] = tested on: Human immunodeficiency virus 1; test: as §1, with “1000” for “10000”; format: functional

In the case of `CNc1ccn([C@@H]2O[C@@](CO)(N=[N+]=[N-])[C@@H](O)[C@@H]2F)c(=O)n1`, the EC50 [1] is reported as 6.7 µM and the CC50 [2] is reported as no less than 25 µM.

`CCNc1ccn([C@@H]2O[C@@](CO)(N=[N+]=[N-])[C@@H](O)[C@@H]2F)c(=O)n1` gave an EC50 [1] greater than 10 µM.

Work on `[N-]=[N+]=N[C@]1(CO)O[C@@H](n2ccc(NC3CCCCC3)nc2=O)[C@@H](F)[C@@H]1O` yielded an EC50 [1] greater than 10 µM.

In the case of `CN(C)c1ccn([C@@H]2O[C@@](CO)(N=[N+]=[N-])[C@@H](O)[C@@H]2F)c(=O)n1`, the EC50 [1] is reported as 13 µM and the CC50 [2] is reported as no less than 25 µM.

For `CCN(CC)c1ccn([C@@H]2O[C@@](CO)(N=[N+]=[N-])[C@@H](O)[C@@H]2F)c(=O)n1`, the EC50 [1] was greater than 10 µM.

`[N-]=[N+]=N[C@]1(CO)O[C@@H](n2ccc(N3CCCC3)nc2=O)[C@@H](F)[C@@H]1O` showed an EC50 [1] greater than 10 µM.

Work on `[N-]=[N+]=N[C@]1(CO)O[C@@H](n2ccc(NCCCO)nc2=O)[C@@H](F)[C@@H]1O` yielded an EC50 [1] greater than 10 µM.

In the case of `[N-]=[N+]=N[C@]1(CO)O[C@@H](n2ccc(NCc3cccnc3)nc2=O)[C@@H](F)[C@@H]1O`, the EC50 [1] is reported as 1.3 µM and the CC50 [2] is reported as no less than 25 µM.

`COc1ccc(Nc2ccn([C@@H]3O[C@@](CO)(N=[N+]=[N-])[C@@H](O)[C@@H]3F)c(=O)n2)c(OC)c1` gave an EC50 [1] of 5.2 µM and a CC50 [2] of no less than 25 µM.

Work on `[N-]=[N+]=N[C@]1(CO)O[C@@H](n2ccc(NO)nc2=O)[C@@H](F)[C@@H]1O` yielded an EC50 [1] of 0.7 µM and a CC50 [2] of no less than 25 µM.

`[N-]=[N+]=N[C@]1(CO)O[C@@H](n2ccc(N(CCO)CCO)nc2=O)[C@@H](F)[C@@H]1O` showed an EC50 [1] of 0.8 µM and a CC50 [2] of no less than 25 µM.

With `CCONc1ccn([C@@H]2O[C@@](CO)(N=[N+]=[N-])[C@@H](O)[C@@H]2F)c(=O)n1` the EC50 [1] was greater than 10 µM.

Molecule `[N-]=[N+]=N[C@]1(CO)O[C@@H](n2ccc(NCc3ccco3)nc2=O)[C@@H](F)[C@@H]1O` has an EC50 [1] of 0.7 µM and a CC50 [2] of no less than 25 µM.

In the case of `[N-]=[N+]=N[C@]1(CO)O[C@@H](n2ccc(N3CCOCC3)nc2=O)[C@@H](F)[C@@H]1O`, the EC50 [1] is reported as greater than 10 µM.

Molecule `[N-]=[N+]=N[C@]1(CO)O[C@@H](n2ccc(NCCc3ccc(O)cc3)nc2=O)[C@@H](F)[C@@H]1O` has an EC50 [1] of 5.7 µM and a CC50 [2] of no less than 25 µM.

`[N-]=[N+]=N[C@]1(CO)O[C@@H](n2ccc(NCCO)nc2=O)[C@@H](F)[C@@H]1O` showed an EC50 [1] greater than 10 µM.

In the case of `CON(C)c1ccn([C@@H]2O[C@@](CO)(N=[N+]=[N-])[C@@H](O)[C@@H]2F)c(=O)n1`, the EC50 [1] is reported as greater than 10 µM.

Molecule `CONc1ccn([C@@H]2O[C@@](CO)(N=[N+]=[N-])[C@@H](O)[C@@H]2F)c(=O)n1` has an EC50 [1] greater than 10 µM.

With `CC(C)C[C@@H](C=O)NC(=O)[C@H](CC(C)C)NC(=O)[C@H](CC(C)C)NC(=O)OCc1ccccc1` (Cbz-Leu-Leu-Leu-aldehyde) the inhibition [3] was “Active” and the inhibition [4] was “Active”.

Work on `Nc1ccn([C@@H]2CS[C@H](CO)O2)c(=O)n1` [LAMIVUDINE] yielded an EC50 [1] of 0.3 µM, a CC50 [2] of no less than 25 µM and an AUC(0-t) at 24 h [5] of 395 µM·h. It also gave a Tmax [6] of 1 h, a Cmax [7] of 31300 nM and an AUC [8] of 0.00013 µM·h. The Tmax [9] was 1 h, the Cmax [10] was 0.03 nM and the Cmax [11] was 93.6 nM. For the same molecule, the Time [12] was 42.7 to 42.74 h, the Activity [13] was “Non-Toxic” and the Kd [14] was 1.51 µM. For the same molecule, the inhibition [15] was “inactive”, the inhibition [16] was “inactive” and the Time [17] was 26.75 h.
